“And” between values parts separate entries of the source, which are not always exact repeats. Equal values may be shown once. Peptide text beside a SMILES is read from it.
How the values were obtained:
[1] = system: dendritic spines of the hippocampal neurons; experiment: dendritic spine morphology and density in hippocampus, C57BL/6 mice; type: in vivo; conditions: 14 days' treatment
Description: (§1) C57/BL6 adult mice were treated for 14 days with daily intraperitoneal injection of saline solution or peptides at a dose of 3 nmol/g (6-10 animals per experimental group). The animals were maintained in an enclosure at 25 ± 2 °C with an alternating light/dark cycle of 12 hours and had free access to water and food in the form of pellets (standard diet).
For the dendritic spine analysis, the protocol used is the one previously described by Kim et al, and envisages the use of DilDye lipophilic tracer (Invitrogen) to allow the dendritic spines to be viewed under the confocal microscope. The analysis of the dimensions and morphology of the spines was performed with ImageJ software.
The spines were classified, based on their morphology, into three different categories: thin, stubby (without a well-defined "neck") and mushroom shaped. To evaluate the possible effect induced by PEP3 on the spine morphology, two animals for each experimental group were perfused after 14 days of treatment and the brain was post-fixed in PFA and cut with a vibratome. To view the dendritic spines the lipophilic tracer DilDye was used. From the images acquired from the confocal microscope the number, length and width of the head of the dendritic spines of the hippocampal neurons were measured.

[2] = Novel Object Recognition Test (NORT), C57BL/6 mice; type: in vivo; conditions: 14 days' treatment
Description: as §1
After 14 days of treatment the animals were subjected to the Novel Object Recognition Test (NORT). Such test is structured in three phases: habituation, familiarization and testing. In the first phase, the animal is placed in an empty arena and left free to explore the environment for 5 minutes. The day after, during the familiarization phase, the animal is placed in the same arena in the presence of two objects, identical in shape and size, for 10 minutes. Then the time spent by the animal exploring the individual object is recorded. On the third day, the animal is placed in the area in the presence of an identical object to that used in the familiarization phase and a new one. In this phase the difference in time spent by the animal exploring the familiar object and the new object is evaluated. […] In both phases of the test, the objects are positioned symmetrically and opposite inside the arena, and all the sessions are recorded with the aid of a video camera. […]

[3] = body weight and food intake during 14 days' treatment; type: in vivo; conditions: C57BL/6 mice, daily intraperitoneal 3 nmol/g
Description: as §1
For the entire duration of the treatment, on a daily basis, the weight and food intake of each animal were monitored and recorded, in order to evaluate any changes caused by the treatment. 24 hours after the last injection the mice were anaesthetized, and then the blood was taken through cardiac puncture, whereas the brain and liver of the animal were rapidly dissected to perform biochemical or immunohistological analyses.
The body weight and food intake were monitored and recorded on a daily basis.

[4] = blood count and platelet count after 14 days' treatment; type: in vivo, mice; design: key to Aggregate s: +, ++, +++ considering the presence of platelet aggregates detected in the blood smear that make the analysis difficult; +, ++, +++ considering the presence of platelet aggregates detected in the blood smear that make the analysis difficult; +, ++, +++ considering the presence of platelet aggregates detected in the blood smear that make the analysis difficult; key to Estimate Plt: A= appropriate platelet estimate
Description: as §1
(§2) The blood, collected through cardiac puncture, was analysed with a laser counter (ADVIA 120, Siemens) using specific software for the murine species. From each sample a blood smear was prepared, stained with the May Grünwald-Giemsa method, and used for the morphological analysis of the leukocytes, the red blood cells and the platelet estimate. After the automatic counting of the cells and the preparation of the smear, all the samples were centrifuged and the plasma was transferred into separate test tubes. The analysis of the plasma samples was performed through automatic spectrophotometer (ILAB-300, Instrumentation Laboratory). All the results were compared with the values provided by the company Charles River for mice of the same strain and age.
The range values are provided by Charles River for C57BL mice aged between 56-70 days, whose blood was collected by cardiac puncture after euthanasia.

[5] = leukogram (white blood cell count) after 14 days' treatment; type: in vivo, mice
Description: as §1, §2
Except for the basophils and eosinophils, the total count and white blood cell (WBC) differential is lower with respect to the range values in all the animals treated. However, we noticed that the reference range values provided by the company Charles River are particularly high with respect to other values provided for other control groups and in other scientific articles in which the same animal strain is analysed. Justification for these differences found is provided by the pre-analytical factors used by Charles River in determining the different reference ranges (such as the method used, the type of sampling used, etc.). Despite this, the analyses of the data performed both individually and by examining the mean and median values in the different groups, show some differences in the values referring to mice treated with the active peptide with respect to the control mice (Table 2).
The following Table 2 illustrates the results of the white blood cell count. The reference values are provided by Charles River for C57BL mice of 56-70 days.

[6] = system: GFAP and Iba-1 positive cells; experiment: neuro-inflammation: GFAP and Iba-1 positive cells in hippocampus; type: in vivo, mice; conditions: 5 fields, 14 days' treatment
Description: as §1
After the sacrifice of the treated animal, a portion of liver and a brain hemisphere were fixed in 10% formalin for 48 hours, and included in paraffin. From each block of paraffin, serial sections 5/6µm thick were obtained. The sections were then stained with haematoxylin-eosin or processed through immunohistochemistry.
Subsequently, to evaluate the presence of neuro-inflammation, 5 different fields of the hippocampus were considered to verify any presence of GFAP and Iba-1 positive cells.

[7] = individual animal, 14 days, daily intraperitoneal 3 nmol/g

N=C(N)NCCC[C@H](NC(=O)CNC(=O)[C@@H](N)Cc1ccc(O)cc1)C(=O)N[C@@H](CCCCN)C(=O)N[C@@H](CCCCN)C(=O)N[C@@H](CCCNC(=N)N)C(=O)N[C@@H](CCCNC(=N)N)C(=O)N[C@@H](CCC(N)=O)C(=O)N[C@@H](CCCNC(=N)N)C(=O)N[C@@H](CCCNC(=N)N)C(=O)N[C@@H](CCCNC(=N)N)C(=O)NCC(=O)NCC(=O)N[C@@H](CO)C(=O)NCC(=O)N[C@@H](CCC(N)=O)C(=O)N1CCC[C@H]1C(=O)N1CCC[C@H]1C(=O)N[C@@H](CCC(=O)O)C(=O)N[C@@H](CCC(N)=O)C(=O)N[C@@H](CCC(=O)O)C(=O)N1CCC[C@H]1C(=O)N[C@@H](CCCNC(=N)N)C(=O)NCC(=O)O [inPEP3, reference compound] (H-YGRKKRRQRRRGGSGQPPEQEPRG-OH)
density of the dendritic spines [1]: 10.15±1.05 n. of spines/10µm
length of mushroom shaped spines [1]: 0.85±0.04
length of the spines [1]: 0.83±0.02 µm
percentage of mushroom shaped spines [1]: 30.81 ± 1.78%
percentage of stubby spines [1]: 42.78 ± 1.86%
percentage of thin spines [1]: 26.41 ± 1.42%
width of the head of spines [1]: 0.79±0.02 µm
time exploring the new object [2]: 59.24 ± 4.58%
food intake (ratio daily food intake / mean body weight) [3]: 99.03±2.03%
(Ht) ([4]; group mean): 48.6%
Hb ([4]; group mean): 12.3 g/dL
Mean Corpuscula r Hb (MCH) ([4]; group mean): 13.4 pg
Mean Corpuscula r Hb Conc. MCHC ([4]; group mean): 25.3%
Platelet count ([4]; group mean): 661000 µL⁻¹
Red blood cells ([4]; group mean): 9.16e+06 µL⁻¹
Red cell distribution width (RDW) ([4]; group mean): 20.7%
Vol. Mean Corp. Vol. (MCV) ([4]; group mean): 53.1 fL
(Ht) ([4]; group median): -48.4%
Hb ([4]; group median): -12.3 g/dL
Platelet count ([4]; group median): -659000 µL⁻¹
Red blood cells ([4]; group median): -9.13e+06 µL⁻¹
Red cell distribution width (RDW) ([4]; group median): -20.5%
Vol. Mean Corp. Vol. (MCV) ([4]; group median): -53.1 fL
Estimate Plt ([4]; individual animal, blood smear, first part of cell): A
Aggregate s ([4]; individual animal, blood smear, second part of cell): +++
(Ht) [4, 7]: 50.1% and 49.5% and 47.8% and 48.7% and 48% and 47.3%
Hb [4, 7]: 12.6 g/dL (2×) and 12 g/dL (2×) and 12.4 g/dL and 12.1 g/dL
Mean Corpuscula r Hb (MCH) [4, 7]: 13.5 Pg (3×) and 13.3 Pg and 13.4 Pg (2×)
Mean Corpuscula r Hb Conc. MCHC [4, 7]: 25.1% (2×) and 25.5% (2×) and 25.2% and 25.4%
Platelet count [4, 7]: 522000 µL⁻¹ and 661000 µL⁻¹ and 656000 µL⁻¹ and 341000 µL⁻¹ and 998000 µL⁻¹ and 790000 µL⁻¹
Red blood cells [4, 7]: 9.36e+06 µL⁻¹ and 9.34e+06 µL⁻¹ and 9.01e+06 µL⁻¹ and 9.21e+06 µL⁻¹ and 9.04e+06 µL⁻¹ and 8.97e+06 µL⁻¹
Red cell distribution width (RDW) [4, 7]: 20.4% and 20.6% and 21.4% and 21.8% and 19.6% and 20.1%
Vol. Mean Corp. Vol. (MCV) [4, 7]: 53.5 fL and 53 fL and 53.1 fL (2×) and 52.9 fL and 52.7 fL
Basophils ([5]; group mean): 0 µL⁻¹
Eosinophils ([5]; group mean): 39.9 µL⁻¹
Lymphocytes ([5]; group mean): 1935.9 µL⁻¹
Monocytes ([5]; group mean): 137.1 µL⁻¹
Neutrophils ([5]; group mean): 990.5 µL⁻¹
White blood cells ([5]; group mean): 3103.3 µL⁻¹
Basophils ([5]; group median): 0 µL⁻¹
Eosinophils ([5]; group median): (-0.0378). x10^3/µL
Lymphocytes ([5]; group median): (-1.837). x10^3/µL
Monocytes ([5]; group median): (-0.0918). x10^3/µL
Neutrophils ([5]; group median): (-0.2468). x10^3/µL
White blood cells ([5]; group median): (-2.295). x10^3/µL
Basophils [5, 7]: 0 µL⁻¹
Eosinophils [5, 7]: 26.1 µL⁻¹ and 31 µL⁻¹ and 44.8 µL⁻¹ and 62 µL⁻¹ and 36 µL⁻¹ and 39.6 µL⁻¹
Lymphocytes [5, 7]: 2218.5 µL⁻¹ and 1271 µL⁻¹ and 1971.2 µL⁻¹ and 2976 µL⁻¹ and 1476 µL⁻¹ and 1702.8 µL⁻¹
Monocytes [5, 7]: 104.4 µL⁻¹ and 15.5 µL⁻¹ and 179.2 µL⁻¹ and 372 µL⁻¹ and 72 µL⁻¹ and 79.2 µL⁻¹
Neutrophils [5, 7]: 261 µL⁻¹ and 232.5 µL⁻¹ and 2284.8 µL⁻¹ and 2790 µL⁻¹ and 216 µL⁻¹ and 158.4 µL⁻¹
White blood cells [5, 7]: 2610 µL⁻¹ and 1550 µL⁻¹ and 4480 µL⁻¹ and 6200 µL⁻¹ and 1800 µL⁻¹ and 1980 µL⁻¹
number of GFAP positive cells [6]: 31.67±1.12
number of Iba-1 positive cells [6]: 8.50±0.43

Source: EP3727588B1, “ACTIVATOR PEPTIDES OF THE ENZYME ADAM 10 AND RELATED USES IN THE TREATMENT OF ALZHEIMER'S DISEASE” (UNIVERSITA' DEGLI STUDI DI MILANO, priority 2017, dated 2019)
